Results on eleven compounds are retold here after ChEMBL document CHEMBL1201862, “PubChem BioAssay data set” (2004).

Test in all cases: growth of human tumour cells (NCI), 48 h
In assay [1] the test system is A498.
The subject of assay [2] is A549.
The test system of assay [3] is COLO 205.
In assay [4] the test system is HCT-116.
For assay [5], the system named is HOP-62.
The subject of assay [6] is IGROV-1.
In assay [7] the test system is KM12.
In assay [8] the test system is MDA-N.
The test system of assay [9] is NCI-H460.
For assay [10], the system named is NCI-H522.
Assay [11] deals with NCI/ADR-RES.
Assay [12] deals with OVCAR-4.
Assay [13] deals with PC-3.
For assay [14], the system named is RPMI-8226.
The subject of assay [15] is RXF 393.
For assay [16], the system named is SK-MEL-28.
Assay [17] concerns SK-OV-3.
Assay [18] has as its system SW-620.
Assay [19] deals with HCC 2998.
The subject of assay [20] is UACC-257.

Each structure is given as a SMILES string.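 Values below derive from 48-hour exposures of cells grown in 96-well plates, with endpoints linearly interpolated between the two concentrations bracketing the appropriate inhibition level. The concentration for 50% growth inhibition is given as GI50.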 Activity calls are given as the source filed them. No stated cut-off is given here; in the data, active = GI50 up to about 1.1 µM and inactive = higher.

Consider `O=C(O)CNCCc1ccccc1`, for which the GI50 in assay [1], in assay [2], in [3], in assay [4], in [5] and in assay [6] was > 100 µM (inactive) in each case. In addition, the GI50 in [7], in [8], in assay [9], in assay [10], in [11] and in assay [12] was > 100 µM (inactive) throughout. In addition, the GI50 in assay [13], in assay [14], in assay [15], in [16], in assay [17] and in assay [18] was > 100 µM (inactive) each time.

Take `COc1ccc2c(c1)CC[C@@H]1[C@@H]2CC[C@]2(C)C(=O)/C(=C/c3ccc(O)c(OC)c3)C[C@@H]12`: the GI50 in assay [1] is > 100 µM (inactive); in assay [2], 51.6 µM (inactive); in assay [3] it was > 100 µM (inactive); in assay [19] it was 31.6 µM (inactive); in assay [5], 62.7 µM (inactive); in assay [6] it was 63.8 µM (inactive). The GI50 is 57.1 µM (inactive) in assay [8]; 39.4 µM (inactive) in [9]; 44.2 µM (inactive) in [11]; 55.8 µM (inactive) in assay [12]; 39.1 µM (inactive) in [13]; 34.7 µM (inactive) in assay [14]. Moreover, the GI50 in [15] is 41.5 µM (inactive); in [16] it was 52.1 µM (inactive); in assay [17], > 100 µM (inactive); in assay [18], 58.2 µM (inactive); in assay [20] it was 57.8 µM (inactive).

Consider `Cc1ccnc(NC(=S)Nc2ccccc2Cl)c1`, for which the GI50 was > 100 µM (inactive) in assay [1]; > 100 µM (inactive) in assay [2]; > 100 µM (inactive) in assay [3]; > 100 µM (inactive) in [4]; 34.7 µM (inactive) in assay [5]; 61.2 µM (inactive) in assay [6]. Besides, the GI50 in [7] was > 100 µM (inactive); in [8], > 100 µM (inactive); in assay [9] it was > 100 µM (inactive); in assay [10], 0.131 µM (active); in assay [11], > 100 µM (inactive); in assay [12] it was > 100 µM (inactive). For the same compound, the GI50 in assay [13] is > 100 µM (inactive); in assay [14], > 100 µM (inactive); in assay [15], > 100 µM (inactive); in assay [16] it was > 100 µM (inactive); in assay [17], 83.8 µM (inactive); in [18], > 100 µM (inactive). The GI50 in assay [20] was > 100 µM (inactive).

As to `CN1CCCOC(c2ccc([N+](=O)[O-])cc2)O1` (stereo not given), the GI50 in [1], in assay [2], in assay [3], in assay [19], in assay [4] and in [5] was > 100 µM (inactive) throughout. The GI50 in [6], in assay [7], in assay [8], in assay [9], in [10] and in [11] was > 100 µM (inactive) in each case. In addition, the GI50 in [12], in [13], in [15], in [16], in assay [17] and in assay [18] was > 100 µM (inactive) throughout. For the same compound, the GI50 in assay [20] was > 100 µM (inactive).

With `CCc1nc(N)c2nc(-c3ccc(C#N)cc3)oc2n1`, the GI50 in assay [1], in assay [2], in assay [3], in assay [19], in [4] and in assay [5] was > 100 µM (inactive) throughout. For the same compound, the GI50 in assay [6], in [7], in assay [8], in assay [9], in assay [10] and in assay [11] was > 100 µM (inactive) throughout. Moreover, the GI50 in assay [13], in [14], in [15], in [16], in assay [18] and in assay [20] was > 100 µM (inactive) throughout.

On to `CCOC(=O)c1sc2nc(SC)nc3c2c1NCN3C`, for which the GI50 in assay [1] was 15.2 µM (inactive); in assay [2] it was 16.9 µM (inactive); in [3], > 100 µM (inactive); in assay [19], 62.1 µM (inactive); in assay [4], 22 µM (inactive); in assay [5] it was 15.1 µM (inactive). In addition, the GI50 was 13 µM (inactive) in assay [6]; > 100 µM (inactive) in assay [7]; > 100 µM (inactive) in [8]; 32.1 µM (inactive) in assay [9]; 19.6 µM (inactive) in [11]; 20.4 µM (inactive) in assay [12]. Also, the GI50 was > 100 µM (inactive) in assay [13]; > 100 µM (inactive) in assay [14]; 13.2 µM (inactive) in assay [15]; > 100 µM (inactive) in assay [16]; 16.1 µM (inactive) in assay [17]; > 100 µM (inactive) in assay [20].

Consider `CS/C1=C(\c2ccc(C)cc2)N(c2ccccc2)C(=O)C(=O)N(c2ccccc2)/C(c2ccc(C)cc2)=C(/SC)SS1`, for which the GI50 is 50.5 µM (inactive) in assay [1]; > 100 µM (inactive) in assay [3]; > 100 µM (inactive) in assay [19]; > 100 µM (inactive) in [4]; > 100 µM (inactive) in assay [5]; > 100 µM (inactive) in [6]. Besides, the GI50 in assay [8], in assay [9], in assay [10], in assay [11], in assay [12] and in assay [13] was > 100 µM (inactive) in each case. The GI50 in assay [14], in [16], in assay [18] and in assay [20] was > 100 µM (inactive) in each case.

Take `CC(C)Oc1c(O)c2c3c(oc(=O)n3C=CC2c2ccccc2F)c1OC(C)C` (stereo not given): the GI50 in [1] is 38.6 µM (inactive); in assay [2], 26.8 µM (inactive); in assay [3] it was 18.7 µM (inactive); in [4], 21.7 µM (inactive); in assay [5], 27.5 µM (inactive); in [6], 44.8 µM (inactive). Also, the GI50 is 29.1 µM (inactive) in assay [7]; 30.9 µM (inactive) in [8]; 25 µM (inactive) in [9]; 33.8 µM (inactive) in assay [10]; 34.4 µM (inactive) in assay [11]; 46 µM (inactive) in assay [12]. Moreover, the GI50 in assay [13] was 13.5 µM (inactive); in assay [14], 17.3 µM (inactive); in [15], 21 µM (inactive); in assay [16], 53.8 µM (inactive); in assay [17], > 100 µM (inactive); in assay [18], 32.9 µM (inactive). Besides, in assay [20], the GI50 was 28.6 µM (inactive).

In the case of `CSc1nncc2[nH]c(C)nc12`, the GI50 in [1], in [2], in assay [3], in assay [19], in assay [4] and in assay [5] was > 100 µM (inactive) each time. Also, the GI50 in [6], in [7], in assay [8], in assay [10], in assay [11] and in [12] was > 100 µM (inactive) in each case. For the same compound, the GI50 in assay [13], in assay [14], in [16], in [17], in assay [18] and in [20] was > 100 µM (inactive) in each case.

As for `CCCCCCCCC/C=C1\CC(CO)(COC(=O)c2ccccc2)OC1=O` (stereo not given), the GI50 is 26 µM (inactive) in [1]; 20 µM (inactive) in assay [2]; 16.6 µM (inactive) in assay [3]; 22.8 µM (inactive) in assay [19]; 22.2 µM (inactive) in [4]; 14.8 µM (inactive) in assay [5]. The GI50 is 32.1 µM (inactive) in assay [6]; 21.4 µM (inactive) in assay [7]; 16.6 µM (inactive) in assay [8]; 16 µM (inactive) in assay [9]; 17.9 µM (inactive) in assay [10]; 22.6 µM (inactive) in assay [11]. The GI50 in assay [12] was 35.1 µM (inactive); in [13], 17.2 µM (inactive); in [15] it was 21.1 µM (inactive); in [16] it was 16.7 µM (inactive); in assay [17], 18.3 µM (inactive); in [18], 19.1 µM (inactive). In addition, in [20], the GI50 was 26.5 µM (inactive).

On to `c1ccc2c(c1)[nH]c1c2cc[n+]2cc3c(cc12)CCCC3`, for which the GI50 is 5.38 µM (inactive) in assay [1]; 6.93 µM (inactive) in assay [2]; 0.38 µM (active) in assay [3]; 1.87 µM (inactive) in assay [19]; 1.59 µM (inactive) in assay [4]; 1.66 µM (inactive) in assay [5]. The GI50 in [6] was 7.18 µM (inactive); in assay [7], 1.7 µM (inactive); in assay [8] it was 1.57 µM (inactive); in assay [9] it was 1.34 µM (inactive); in assay [10], 1.79 µM (inactive); in [11], 44.6 µM (inactive). For the same compound, the GI50 is 1.72 µM (inactive) in assay [12]; 2.83 µM (inactive) in [13]; 1.53 µM (inactive) in assay [14]; 1.47 µM (inactive) in [16]; 3.87 µM (inactive) in assay [17]; 2.1 µM (inactive) in [18]. Also, the GI50 in assay [20] is 4.09 µM (inactive).
